The NIST ThermoML archive (doi:10.1016/j.jct.2016.03.030)

Test: xn = mol fraction of the nth substance listed
Settings: 100 kPa, Liquid; for viscosity: Falling or rolling sphere viscometry; for mass density: Vibrating tube method

CCCCC[N+]1(C)CCCCC1.[Br-] [1-methyl-1-pentylpiperidinium bromide] + O
Settings	mass density [kg/m3]	viscosity [mPa·s]
298.15 K, x1 = 0.003	1003.5	–
298.15 K, x1 = 0.0072	1012	–
298.15 K, x1 = 0.0119	1021.1	–
298.15 K, x1 = 0.0427	1070.7	2.961
298.15 K, x1 = 0.0615	1091.4	4.385
298.15 K, x1 = 0.0839	1110.2	6.713
298.15 K, x1 = 0.1192	1131.1	12.34
298.15 K, x1 = 0.1491	1144	17.14
298.15 K, x1 = 0.2004	1159.3	27.79
298.15 K, x1 = 0.2206	1163.7	41.58
298.15 K, x1 = 0.2393	1167.7	58.11
298.15 K, x1 = 0.2655	1172.3	95.22
298.15 K, x1 = 0.2745	1173.8	107.8
303.15 K, x1 = 0.003	1002	–
303.15 K, x1 = 0.0072	1010.4	–
303.15 K, x1 = 0.0119	1019.3	–
303.15 K, x1 = 0.0427	1067.8	2.439
303.15 K, x1 = 0.0615	1088.2	3.663
303.15 K, x1 = 0.0839	1106.7	5.513
303.15 K, x1 = 0.1192	1127.5	9.841
303.15 K, x1 = 0.1491	1140.4	12.93
303.15 K, x1 = 0.2004	1153.7	21.75
303.15 K, x1 = 0.2206	1160.2	29.41
303.15 K, x1 = 0.2393	1164.2	44.51
303.15 K, x1 = 0.2655	1168.8	68.59
303.15 K, x1 = 0.2745	1170.3	77.28
308.15 K, x1 = 0.003	1000.2	–
308.15 K, x1 = 0.0072	1008.6	–
308.15 K, x1 = 0.0119	1017.3	–
308.15 K, x1 = 0.0427	1064.8	1.881
308.15 K, x1 = 0.0615	1084.9	3.087
308.15 K, x1 = 0.0839	1103.2	4.576
308.15 K, x1 = 0.1192	1123.9	8.001
308.15 K, x1 = 0.1491	1136.8	9.983
308.15 K, x1 = 0.2004	1152.1	16.35
308.15 K, x1 = 0.2206	1156.7	23.02
308.15 K, x1 = 0.2393	1160.7	33.69
308.15 K, x1 = 0.2655	1165.3	50.52
308.15 K, x1 = 0.2745	1166.8	56.51
313.15 K, x1 = 0.003	998.2	–
313.15 K, x1 = 0.0072	1006.5	–
313.15 K, x1 = 0.0119	1015.1	–
313.15 K, x1 = 0.0427	1061.8	1.639
313.15 K, x1 = 0.0615	1081.5	2.632
313.15 K, x1 = 0.0839	1099.7	3.846
313.15 K, x1 = 0.1192	1120.3	6.581
313.15 K, x1 = 0.1491	1133.2	8.698
313.15 K, x1 = 0.2004	1148.2	14.09
313.15 K, x1 = 0.2206	1153.1	18.11
313.15 K, x1 = 0.2393	1157.1	25.85
313.15 K, x1 = 0.2655	1161.8	38.16
313.15 K, x1 = 0.2745	1163.3	42.34
318.15 K, x1 = 0.003	996.1	–
318.15 K, x1 = 0.0072	1004.2	–
318.15 K, x1 = 0.0119	1012.8	–
318.15 K, x1 = 0.0427	1058.7	1.441
318.15 K, x1 = 0.0615	1078.1	2.267
318.15 K, x1 = 0.0839	1096.1	3.269
318.15 K, x1 = 0.1192	1116.6	5.458
318.15 K, x1 = 0.1491	1129.5	7.311
318.15 K, x1 = 0.2004	1144.5	11.22
318.15 K, x1 = 0.2206	1149.5	14.1
318.15 K, x1 = 0.2393	1153.6	20.21
318.15 K, x1 = 0.2655	1158.3	29.44
318.15 K, x1 = 0.2745	1159.8	32.5
323.15 K, x1 = 0.003	993.7	–
323.15 K, x1 = 0.0072	1001.9	–
323.15 K, x1 = 0.0119	1010.3	–
323.15 K, x1 = 0.0427	1055.5	1.261
323.15 K, x1 = 0.0615	1074.7	1.945
323.15 K, x1 = 0.0839	1092.5	2.77
323.15 K, x1 = 0.1192	1113	4.499
323.15 K, x1 = 0.1491	1125.8	6.029
323.15 K, x1 = 0.2004	1141.2	9.723
323.15 K, x1 = 0.2206	1145.9	12.33
323.15 K, x1 = 0.2393	1150.1	15.88
323.15 K, x1 = 0.2655	1154.8	22.79
323.15 K, x1 = 0.2745	1156.3	25.06
328.15 K, x1 = 0.003	990.9	–
328.15 K, x1 = 0.0072	999.4	–
328.15 K, x1 = 0.0119	1007.7	–
328.15 K, x1 = 0.0427	1052.2	1.11
328.15 K, x1 = 0.0615	1071.2	1.682
328.15 K, x1 = 0.0839	1088.9	2.369
328.15 K, x1 = 0.1192	1109.3	3.749
328.15 K, x1 = 0.1491	1122.1	5.354
328.15 K, x1 = 0.2004	1137.5	8.195
328.15 K, x1 = 0.2206	1142.3	10.68
328.15 K, x1 = 0.2393	1146.5	12.74
328.15 K, x1 = 0.2655	1151.3	18.03
328.15 K, x1 = 0.2745	1152.8	19.71
333.15 K, x1 = 0.003	989.3	–
333.15 K, x1 = 0.0072	996.3	–
333.15 K, x1 = 0.0119	1004.9	–
333.15 K, x1 = 0.0427	1048.8	1.034
333.15 K, x1 = 0.0615	1067.6	1.474
333.15 K, x1 = 0.0839	1085.2	2.055
333.15 K, x1 = 0.1192	1105.5	3.014
333.15 K, x1 = 0.1491	1118.4	4.513
333.15 K, x1 = 0.2004	1132.9	7.033
333.15 K, x1 = 0.2206	1138.7	8.945
333.15 K, x1 = 0.2393	1143	10.47
333.15 K, x1 = 0.2655	1147.7	14.56
333.15 K, x1 = 0.2745	1149.3	15.86
338.15 K, x1 = 0.003	986	–
338.15 K, x1 = 0.0072	993.1	–
338.15 K, x1 = 0.0119	1002	–
338.15 K, x1 = 0.0427	1045.4	0.886
338.15 K, x1 = 0.0615	1064	1.3
338.15 K, x1 = 0.0839	1081.4	1.835
338.15 K, x1 = 0.1192	1101.8	2.724
338.15 K, x1 = 0.1491	1114.7	4.032
338.15 K, x1 = 0.2004	1131.2	6.088
338.15 K, x1 = 0.2206	1135.1	7.421
338.15 K, x1 = 0.2393	1139.4	8.696
338.15 K, x1 = 0.2655	1144.2	11.95
338.15 K, x1 = 0.2745	1145.8	12.94
343.15 K, x1 = 0.003	983.6	–
343.15 K, x1 = 0.0072	990.1	–
343.15 K, x1 = 0.0119	999	–
343.15 K, x1 = 0.0427	1041.8	0.85
343.15 K, x1 = 0.0615	1060.3	1.142
343.15 K, x1 = 0.0839	1077.7	1.634
343.15 K, x1 = 0.1192	1098	2.382
343.15 K, x1 = 0.1491	1110.9	3.697
343.15 K, x1 = 0.2004	1126.4	5.341
343.15 K, x1 = 0.2206	1131.5	6.243
343.15 K, x1 = 0.2393	1135.9	7.34
343.15 K, x1 = 0.2655	1140.6	9.976
343.15 K, x1 = 0.2745	1142.3	10.75
